The experiment concerns the target cAMP-dependent protein kinase catalytic subunit alpha (Bos taurus, UniProt P00517). The experiment in a line: CDK Kinase Inhibition Assay. The settings on record: 25 °C.

Consider 28 compounds from BindingDB's records for doi:10.1016/s0960-894x(03)00461-x (Eli Lilly, 2003).

pIC50: −log10 of the molar value. Bounds are passed on as bounds.

For `O=C1NC(=O)c2c1c1c(ccc3cc[nH]c31)c1[nH]c3ccccc3c21` [3,13,18-triazahexacyclo[14.7.0.0^{2,10}.0^{4,9}.0^{11,15}.0^{17,21}]tricosa-1(16),2(10),4(9),5,7,11(15),17(21),19,22-nonaene-12,14-dione], the pIC50 was less than 5.70.

In turn, `O=C1NC(=O)c2c1c1c(ccc3cc[nH]c31)c1c2c2ccccc2n1CCCO` [3-(3-hydroxypropyl)-3,13,18-triazahexacyclo[14.7.0.0^{2,10}.0^{4,9}.0^{11,15}.0^{17,21}]tricosa-1(16),2(10),4(9),5,7,11(15),17(21),19,22-nonaene-12,14-dione] showed a pIC50 of less than 4.70. With `Cn1ccc2ccc3c(c4c(c5c6ccccc6n(CCCO)c35)C(=O)NC4=O)c21` [3-(3-hydroxypropyl)-18-methyl-3,13,18-triazahexacyclo[14.7.0.0^{2,10}.0^{4,9}.0^{11,15}.0^{17,21}]tricosa-1(16),2(10),4(9),5,7,11(15),17(21),19,22-nonaene-12,14-dione] the figure was less than 5.70. Under `COc1ccc2c3c4c(c5c(ccc6ccn(C)c65)c3n(CCN3CCC[C@H]3CO)c2c1)C(=O)NC4=O` [3-{2-[(2S)-2-(hydroxymethyl)pyrrolidin-1-yl]ethyl}-6-methoxy-18-methyl-3,13,18-triazahexacyclo[14.7.0.0^{2,10}.0^{4,9}.0^{11,15}.0^{17,21}]tricosa-1(16),2(10),4(9),5,7,11(15),17(21),19,22-nonaene-12,14-dione] stands less than 4.70. Under `Cn1ccc2ccc3c4[nH]c5c(CCO)cccc5c4c4c(c3c21)C(=O)NC4=O` [5-(2-hydroxyethyl)-18-methyl-3,13,18-triazahexacyclo[14.7.0.0^{2,10}.0^{4,9}.0^{11,15}.0^{17,21}]tricosa-1(16),2(10),4(9),5,7,11(15),17(21),19,22-nonaene-12,14-dione] stands less than 4.70; under `Cn1ccc2ccc3c4[nH]c5c(CCCO)cccc5c4c4c(c3c21)C(=O)NC4=O` [5-(3-hydroxypropyl)-18-methyl-3,13,18-triazahexacyclo[14.7.0.0^{2,10}.0^{4,9}.0^{11,15}.0^{17,21}]tricosa-1(16),2(10),4(9),5,7,11(15),17(21),19,22-nonaene-12,14-dione], less than 4.70; under `COc1cccc2c1[nH]c1c3ccc4ccn(C)c4c3c3c(c21)C(=O)NC3=O` [5-methoxy-18-methyl-3,13,18-triazahexacyclo[14.7.0.0^{2,10}.0^{4,9}.0^{11,15}.0^{17,21}]tricosa-1(16),2(10),4(9),5,7,11(15),17(21),19,22-nonaene-12,14-dione], less than 4.70. `Cc1ccc2c(c1)[nH]c1c3ccc4ccn(C)c4c3c3c(c21)C(=O)NC3=O` [6,18-dimethyl-3,13,18-triazahexacyclo[14.7.0.0^{2,10}.0^{4,9}.0^{11,15}.0^{17,21}]tricosa-1(16),2(10),4(9),5,7,11(15),17(21),19,22-nonaene-12,14-dione]: the pIC50 is less than 4.70. With `Cn1ccc2ccc3c4[nH]c5cc(Br)ccc5c4c4c(c3c21)C(=O)NC4=O` [6-bromo-18-methyl-3,13,18-triazahexacyclo[14.7.0.0^{2,10}.0^{4,9}.0^{11,15}.0^{17,21}]tricosa-1(16),2(10),4(9),5,7,11(15),17(21),19,22-nonaene-12,14-dione] the figure was less than 4.70; with `CCOc1ccc2c(c1)[nH]c1c3ccc4ccn(C)c4c3c3c(c21)C(=O)NC3=O` [6-ethoxy-18-methyl-3,13,18-triazahexacyclo[14.7.0.0^{2,10}.0^{4,9}.0^{11,15}.0^{17,21}]tricosa-1(16),2(10),4(9),5,7,11(15),17(21),19,22-nonaene-12,14-dione], less than 4.70.

Take `Cc1cc2ccn(C)c2c2c3c(c4c5ccc(F)cc5[nH]c4c12)C(=O)NC3=O` [6-fluoro-18,23-dimethyl-3,13,18-triazahexacyclo[14.7.0.0^{2,10}.0^{4,9}.0^{11,15}.0^{17,21}]tricosa-1(16),2(10),4(9),5,7,11(15),17(21),19,22-nonaene-12,14-dione]: the pIC50 is less than 4.70.

Take `Cn1ccc2ccc3c4[nH]c5cc(F)ccc5c4c4c(c3c21)C(=O)NC4=O` [6-fluoro-18-methyl-3,13,18-triazahexacyclo[14.7.0.0^{2,10}.0^{4,9}.0^{11,15}.0^{17,21}]tricosa-1(16),2(10),4(9),5,7,11(15),17(21),19,22-nonaene-12,14-dione]: the pIC50 is less than 4.70. Under `COc1ccc2c(c1)[nH]c1c2c2c(c3c1c(C)cc1ccn(C)c13)C(=O)NC2=O` [6-methoxy-18,23-dimethyl-3,13,18-triazahexacyclo[14.7.0.0^{2,10}.0^{4,9}.0^{11,15}.0^{17,21}]tricosa-1(16),2(10),4(9),5,7,11(15),17(21),19,22-nonaene-12,14-dione] stands less than 4.70; under `COc1ccc2c(c1)[nH]c1c3ccc4ccn(C)c4c3c3c(c21)C(=O)NC3=O` [6-methoxy-18-methyl-3,13,18-triazahexacyclo[14.7.0.0^{2,10}.0^{4,9}.0^{11,15}.0^{17,21}]tricosa-1(16),2(10),4(9),5,7,11(15),17(21),19,22-nonaene-12,14-dione], less than 4.70.

With `Cn1ccc2ccc3c4[nH]c5ccc(F)cc5c4c4c(c3c21)C(=O)NC4=O` [7-fluoro-18-methyl-3,13,18-triazahexacyclo[14.7.0.0^{2,10}.0^{4,9}.0^{11,15}.0^{17,21}]tricosa-1(16),2(10),4(9),5,7,11(15),17(21),19,22-nonaene-12,14-dione], the pIC50 is less than 4.70. With `COc1ccc2[nH]c3c4ccc5ccn(C)c5c4c4c(c3c2c1)C(=O)NC4=O` [7-methoxy-18-methyl-3,13,18-triazahexacyclo[14.7.0.0^{2,10}.0^{4,9}.0^{11,15}.0^{17,21}]tricosa-1(16),2(10),4(9),5,7,11(15),17(21),19,22-nonaene-12,14-dione] the figure was less than 4.70. As to `Cn1ccc2ccc3c4[nH]c5cccc(CO)c5c4c4c(c3c21)C(=O)NC4=O` [8-(hydroxymethyl)-18-methyl-3,13,18-triazahexacyclo[14.7.0.0^{2,10}.0^{4,9}.0^{11,15}.0^{17,21}]tricosa-1(16),2(10),4(9),5,7,11(15),17(21),19,22-nonaene-12,14-dione], the pIC50 was less than 4.70. `Cn1ccc2ccc3c4[nH]c5cccc(Br)c5c4c4c(c3c21)C(=O)NC4=O` [8-bromo-18-methyl-3,13,18-triazahexacyclo[14.7.0.0^{2,10}.0^{4,9}.0^{11,15}.0^{17,21}]tricosa-1(16),2(10),4(9),5,7,11(15),17(21),19,22-nonaene-12,14-dione]: the pIC50 is less than 4.70.

Take `Cn1ccc2ccc3c4[nH]c5cccc(F)c5c4c4c(c3c21)C(=O)NC4=O` [8-fluoro-18-methyl-3,13,18-triazahexacyclo[14.7.0.0^{2,10}.0^{4,9}.0^{11,15}.0^{17,21}]tricosa-1(16),2(10),4(9),5,7,11(15),17(21),19,22-nonaene-12,14-dione]: the negative-log IC50 (pIC50) was less than 4.70. With `Cc1cc2ccn(C)c2c2c3c(c4c5ccccc5[nH]c4c12)C(=O)NC3=O` [18,23-dimethyl-3,13,18-triazahexacyclo[14.7.0.0^{2,10}.0^{4,9}.0^{11,15}.0^{17,21}]tricosa-1(16),2(10),4(9),5,7,11(15),17(21),19,22-nonaene-12,14-dione] the figure was less than 4.70; with `Cc1cc2ccn(C)c2c2c3c(c4c5ccc(C(F)(F)F)cc5[nH]c4c12)C(=O)NC3=O` [18,23-dimethyl-6-(trifluoromethyl)-3,13,18-triazahexacyclo[14.7.0.0^{2,10}.0^{4,9}.0^{11,15}.0^{17,21}]tricosa-1(16),2(10),4(9),5,7,11(15),17(21),19,22-nonaene-12,14-dione], less than 4.70; with `CCn1ccc2ccc3c4[nH]c5ccccc5c4c4c(c3c21)C(=O)NC4=O` [18-ethyl-3,13,18-triazahexacyclo[14.7.0.0^{2,10}.0^{4,9}.0^{11,15}.0^{17,21}]tricosa-1(16),2(10),4(9),5,7,11(15),17(21),19,22-nonaene-12,14-dione], less than 5.70. `Cn1ccc2ccc3c4[nH]c5ccccc5c4c4c(c3c21)C(=O)NC4=O` [18-methyl-3,13,18-triazahexacyclo[14.7.0.0^{2,10}.0^{4,9}.0^{11,15}.0^{17,21}]tricosa-1(16),2(10),4(9),5,7,11(15),17(21),19,22-nonaene-12,14-dione] showed a negative logarithm of the IC50 (pIC50) of less than 4.70. With `Cn1ccc2ccc3c4[nH]c5c(CCN6CCOCC6)cccc5c4c4c(c3c21)C(=O)NC4=O` [18-methyl-5-[2-(morpholin-4-yl)ethyl]-3,13,18-triazahexacyclo[14.7.0.0^{2,10}.0^{4,9}.0^{11,15}.0^{17,21}]tricosa-1(16),2(10),4(9),5,7,11(15),17(21),19,22-nonaene-12,14-dione] the figure was less than 4.70; with `Cn1ccc2ccc3c4[nH]c5c(CCN6CCSCC6)cccc5c4c4c(c3c21)C(=O)NC4=O` [18-methyl-5-[2-(thiomorpholin-4-yl)ethyl]-3,13,18-triazahexacyclo[14.7.0.0^{2,10}.0^{4,9}.0^{11,15}.0^{17,21}]tricosa-1(16),2(10),4(9),5,7,11(15),17(21),19,22-nonaene-12,14-dione], less than 4.70. With `Cn1ccc2ccc3c4[nH]c5c(CCCN6CCOCC6)cccc5c4c4c(c3c21)C(=O)NC4=O` [18-methyl-5-[3-(morpholin-4-yl)propyl]-3,13,18-triazahexacyclo[14.7.0.0^{2,10}.0^{4,9}.0^{11,15}.0^{17,21}]tricosa-1(16),2(10),4(9),5,7,11(15),17(21),19,22-nonaene-12,14-dione] the figure was less than 4.70; with `Cn1ccc2ccc3c4[nH]c5cc(C(F)(F)F)ccc5c4c4c(c3c21)C(=O)NC4=O` [18-methyl-6-(trifluoromethyl)-3,13,18-triazahexacyclo[14.7.0.0^{2,10}.0^{4,9}.0^{11,15}.0^{17,21}]tricosa-1(16),2(10),4(9),5,7,11(15),17(21),19,22-nonaene-12,14-dione], less than 4.70; with `Cn1ccc2ccc3c4[nH]c5cc(C#N)ccc5c4c4c(c3c21)C(=O)NC4=O` [18-methyl-12,14-dioxo-3,13,18-triazahexacyclo[14.7.0.0^{2,10}.0^{4,9}.0^{11,15}.0^{17,21}]tricosa-1(16),2(10),4(9),5,7,11(15),17(21),19,22-nonaene-6-carbonitrile], less than 4.70.

Broadly, the pIC50 is the IC50 on a negative log10 scale, so that one unit is a factor of ten. Read a high pIC50 as a small IC50.
